Experimental data from ChEMBL document CHEMBL4419178, “Yap1 inhibitors that target the interaction of yap1 with oct4” (2018).
The source made the active and inactive calls. The rule behind the calls is not given here.

How the values were obtained:
[1] = target: Transcriptional coactivator YAP1 (Homo sapiens) (UniProt P46937); test: Inhibition of YAP1 (unknown origin) assessed as disruption in YAP1/OCT4 interaction at 10 uM by ELISA relative to control
[2] = target: Transcriptional coactivator YAP1 (Homo sapiens) (UniProt P46937); test: Inhibition of YAP1 (unknown origin) assessed as disruption in YAP1/OCT4 interaction at 50 uM by cell based assay
[3] = Lipophilicity, logP of the compound; format: physicochemical; conditions: octanol/water
[4] = test system: NCI-H1650; test: Inhibition of self-renewal capacity in stem-like side-population cells of human NCI-H1650 cells assessed as reduction in number of spheres at 1 to 20 uM incubated for 10 days by sphere formation assay; format: functional, cell-based
[5] = target: Transcriptional coactivator YAP1 (Homo sapiens) (UniProt P46937); test: Inhibition of YAP1 (unknown origin) assessed as disruption in YAP1/OCT4 interaction at 5 uM by ELISA relative to control
[6] = Cytotoxicity in human cancer associated fibroblasts at 20 to 50 uM incubated for 24 to 48 hrs by cytotracker-red/green dye staining based immunofluorescence microscopy
[7] = test system: NCI-H1650; test: Cytotoxicity in human NCI-H1650 cells assessed as induction of cell killing in presence of cancer associated fibroblasts at 20 to 50 uM incubated for 24 to 48 hrs by cytotracker-red/green dye staining based immunofluorescence microscopy; format: functional
[8] = test system: A549; test: Cytotoxicity in human A549 cells assessed as reduction in cell viability at 1 to 20 uM incubated for 72 hrs by MTT assay; format: functional, cell-based
[9] = test system: NCI-H1650; test: Cytotoxicity in human NCI-H1650 cells assessed as reduction in cell viability at 1 to 20 uM incubated for 72 hrs by MTT assay; format: functional, cell-based
[10] = test system: NCI-H2286; test: Cytotoxicity in human NCI-H2286 cells assessed as reduction in cell viability at 5 to 50 uM incubated for 96 hrs by MTT assay; format: functional, cell-based
[11] = test system: NCI-H1650; test: Inhibition of YAP1 in human NCI-H1650 cells assessed as disruption in YAP1/TEAD2 interaction at 20 to 50 uM incubated for 48 hrs by proximity ligation assay; format: cell-based
[12] = test system: NCI-H1650; test: Cytotoxicity in human NCI-H1650 cells assessed as reduction in cell viability at 20 to 50 uM incubated for 24 hrs followed by medium replacement with RPMI medium with 10% FCS for 48 hrs by MTT assay; format: functional, cell-based
[13] = test system: NCI-H1650; test: Cytotoxicity in human NCI-H1650 cells assessed as reduction in cell viability at 20 to 50 uM incubated for 72 hrs by MTT assay; format: functional, cell-based
[14] = test system: NCI-H2170; test: Cytotoxicity in human NCI-H2170 cells assessed as reduction in cell viability at 5 to 50 uM incubated for 96 hrs by MTT assay; format: functional, cell-based
[15] = test system: NCI-H1650; test: Inhibition of self-renewal capacity in stem-like side-population cells of human NCI-H1650 cells assessed as reduction in number of spheres at 5 to 50 uM incubated for 10 days by sphere formation assay; format: functional, cell-based
[16] = target: Transcriptional coactivator YAP1 (Homo sapiens) (UniProt P46937); test: Inhibition of YAP1 in human NCI-H1650 cells assessed as disruption in YAP1/OCT4 interaction at 20 to 50 uM incubated for 48 hrs by proximity ligation assay; format: cell-based

Chain of Transcriptional coactivator YAP1 (Homo sapiens) (P46937 whole entry): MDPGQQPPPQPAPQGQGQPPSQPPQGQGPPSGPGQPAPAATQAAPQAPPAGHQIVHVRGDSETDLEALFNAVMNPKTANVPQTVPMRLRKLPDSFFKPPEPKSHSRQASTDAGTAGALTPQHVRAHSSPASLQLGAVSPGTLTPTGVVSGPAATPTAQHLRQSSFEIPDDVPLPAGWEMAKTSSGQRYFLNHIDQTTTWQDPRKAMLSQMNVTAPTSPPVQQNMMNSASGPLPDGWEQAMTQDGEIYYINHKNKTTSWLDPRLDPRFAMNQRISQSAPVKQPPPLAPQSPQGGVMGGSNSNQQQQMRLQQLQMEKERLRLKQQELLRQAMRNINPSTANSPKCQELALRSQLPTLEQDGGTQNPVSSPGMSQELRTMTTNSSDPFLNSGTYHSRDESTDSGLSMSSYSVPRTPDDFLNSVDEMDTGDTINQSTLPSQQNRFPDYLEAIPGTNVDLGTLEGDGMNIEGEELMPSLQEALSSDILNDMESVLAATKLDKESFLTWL

Row | inhibition [1] | inhibition [2] | logP [3] | inhibition [5] | inhibition [16] | SMILES | inhibition [4] | Activity [6] | Activity [7] | Activity [8] | Activity [9] | Activity [10] | inhibition [11] | Activity [12] | Activity [13] | Activity [14] | inhibition [15]
1 | 80.8% | > 75% | 3.9 to 3.94 | 72.6% | – | COC(=O)[C@H](Cc1ccc(OCc2ccccc2)cc1)NC(=O)CC1CCN(C(=O)OC(C)(C)C)CC1 | Active | – | – | – | – | – | – | – | – | – | –
2 | 90% | 90% | 4.7 | – | Active | COC(=O)[C@H](Cc1ccc(OCc2ccccc2)cc1)NC(=O)CC1CCN(C(=O)CCc2ccccc2)CC1 | – | Non-Toxic | Active | Active | Active | Active | Active | Active | Active | Active | Active
3 | – | – | – | – | – | COC(=O)[C@H](Cc1ccc(OCc2ccccc2)cc1)NC(=O)CC1CCN(C(=O)CCc2cc(OC)c(OC)c(OC)c2)CC1 | – | – | – | Active | Active | Active | – | – | – | Active | Active
